# Reference: patent US9000043B2, “Phenoxyethoxy compounds” (Eli Lilly and Company, priority 2013, dated 2015)
# Assays:
# human EP1 = human EP1 (Homo sapiens (Human), UniProt P34995); test: In vitro binding to human EP1 ([3H]-PGE2 displacement, membranes); conditions: HEK293 membranes, [3H]-PGE2, n = 1; read-out: hEP1, Ki
# Description: (§1) hEP1 and hEP4 membranes are prepared from recombinant HEK293 cells stably expressing the human EP1 (Genbank accession number AY275470) or EP4 (Genbank accession number AY429109) receptors. hEP2 and hEP3 membranes are prepared from HEK293 cells transiently transfected with EP2 (Genbank accession number AY275471) or EP3 (isoform VI: Genbank accession number AY429108) receptor plasmids. Frozen cell pellets are homogenized in homogenization buffer using a Teflon/glass homogenizer. Membrane protein is aliquoted and quick frozen on dry ice prior to storage at −80° C. Homogenization buffer contained 10 mM Tris-HCl, pH 7.4, 250 mM sucrose, 1 mM EDTA, 0.3 mM indomethacin and plus Complete™, with EDTA, obtained from Roche Molecular Biochemicals (Catalog Number 1 697 498).
# (§2) Kd values for [3]H-PGE2 binding to each receptor are determined by saturation binding studies or homologous competition. […] Nonspecific binding is calculated by comparing binding in the presence and absence of 2 μM of PGE2. The membranes are harvested by filtration (TomTek harvester), washed 4 times with cold buffer (10 mM MES pH 6.0 with KOH, 10 mM MgCl2), dried in a 60° C. oven, and the radioactivity is quantified as counts per minute (CPM) using a TopCount detector. Percent specific binding is calculated as the percent of the binding in the absence of any inhibitor, corrected for binding in the presence of 2 μM of PGE2. […]
# human EP2 = human EP2 (Homo sapiens (Human), UniProt P43116); test: In vitro binding to human EP2 ([3H]-PGE2 displacement, membranes); conditions: HEK293 membranes, [3H]-PGE2, n = 2; read-out: hEP2, Ki
# Description: as §1, §2
# human EP3 (isoform VI) = human EP3 (isoform VI) (Homo sapiens (Human), UniProt P43115); test: In vitro binding to human EP3 ([3H]-PGE2 displacement, membranes); conditions: HEK293 membranes, [3H]-PGE2, n = 1; read-out: hEP3, Ki
# Description: as §1, §2
# human EP4 [1] = biological target: T1, human EP4 (Homo sapiens (Human), UniProt P35408); test: In vitro binding to human EP4 ([3H]-PGE2 displacement, membranes); conditions: HEK293 membranes, [3H]-PGE2, n = 3; read-out: hEP4, Ki
# Description: as §1, §2
# Target sequence in this assay (P35408 whole entry, looked up): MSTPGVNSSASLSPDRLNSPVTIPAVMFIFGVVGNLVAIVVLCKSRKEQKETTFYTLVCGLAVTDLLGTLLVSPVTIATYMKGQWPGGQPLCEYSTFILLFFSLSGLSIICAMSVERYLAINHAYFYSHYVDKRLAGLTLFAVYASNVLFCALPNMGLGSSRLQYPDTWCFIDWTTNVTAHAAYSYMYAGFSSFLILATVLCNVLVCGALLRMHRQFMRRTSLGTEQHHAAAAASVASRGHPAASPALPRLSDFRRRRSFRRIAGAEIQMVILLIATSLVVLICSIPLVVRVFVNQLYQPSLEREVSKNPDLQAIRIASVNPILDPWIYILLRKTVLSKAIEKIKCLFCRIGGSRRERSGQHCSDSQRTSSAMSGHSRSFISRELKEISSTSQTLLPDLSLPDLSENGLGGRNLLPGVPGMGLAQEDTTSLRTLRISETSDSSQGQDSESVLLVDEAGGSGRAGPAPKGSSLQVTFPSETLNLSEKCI
# human EP4 [2] = biological target: T1, human EP4; test: In vitro human EP4 functional antagonist activity (PGE2-stimulated cAMP, HTRF); assay type: cell-based; conditions: HEK293 cells expressing human EP4, PGE2 at EC80, n=5; read-out: IC50 measured at human EP4 (inhibition of PGE2-stimulated cAMP production)
# Description: Assays are conducted in recombinant HEK293 cells stably expressing human EP4 receptor. The cell lines are maintained by culturing in DMEM with high glucose and pyridoxine hydrochloride (Invitrogen) supplemented with 10% fetal bovine serum (FBS), 1 mM sodium pyruvate, 10 mM HEPES, 500 μg/mL geneticin and 2 mM L-glutamine. Confluent cultures are grown at 37° C. in an atmosphere containing 5% CO2. Cells are harvested using 2.5% Trypsin-EDTA, suspended in freeze media (FBS with 6% DMSO) at 10^7 cells/mL and aliquots are stored in liquid nitrogen. Just before assay, cells are thawed in DMEM, centrifuged, and resuspended in cAMP buffer.
# The inhibition of PGE2-stimulated cAMP production by EP4 antagonists is measured using HTRF (Cisbio catalogue #62AM4PEB). An aliquot equivalent to 4000 cells is incubated with 50 μL cAMP assay buffer containing PGE2 in a concentration predetermined to produce an EC80 (0.188 nM PGE2 from Sigma, catalog # P5640-10 mg) and EP4 antagonists at room temperature for 20 minutes. cAMP assay buffer contains 500 mL HBSS, 0.1% BSA, 20 mM HEPES and 200 μM IBMX (Sigma 15879). […] The HTRF signal is detected using an EnVision® plate reader (Perkin-Elmer) to calculate the ratio of fluorescence at 665 nm to that at 620 nm. […]
# Target sequence in this assay (P35408 whole entry): as the sequence (P35408 whole entry, looked up) above
# rat EP4 = rat EP4 (Rattus norvegicus (Rat), UniProt P43114); test: In vitro rat EP4 functional antagonist activity (PGE2-stimulated cAMP, HTRF); assay type: cell-based; conditions: HEK293 cells expressing rat EP4, PGE2 at EC80, n=1; read-out: IC50 measured at rat EP4 (inhibition of PGE2-stimulated cAMP)
# Description: Rat EP4 cDNA (Genebank Accession# NM_03276) is cloned into pcDNA 3.1 vector and subsequently transfected in HEK293 cells for receptor expression. Rat EP4 stable clone is scaled up and then frozen down as cell bank for future compounds screening. To test EP4 antagonist compounds in rEP4 cells, thaw the frozen cells and then resuspend cells in cAMP assay buffer. The cAMP buffer is made by HBSS without Phenol Red (Hyclone, SH30268) supplemented with 20 mM HEPES (Hyclone, SH30237), 0.1% BSA (Gibco, 15260) and 125 μM IBMX (Sigma, 15879). The cells are plated into 96-well half area flat-bottom polystyrene black plates (Costar 3694). Compounds are serial diluted with DMSO to give 10-point concentration response curves. Then diluted compounds are added into cAMP assay buffer which contains PGE2 (Cayman 14010, in a concentration predetermined to produce an EC80) at ratio of DMSO/buffer at 1/100. The cells are treated with compounds in the presence of PGE2 (EC80 concentration) for 30 minutes at room temperature. The cAMP levels generated from the cells are quantified by a cAMP HTRF assay kit (Cisbio 62AM4PEC). The plates are read on an EnVision plate reader using HTRF optimized protocol (PerkinElmer). IC50s are calculated using Graphpad Prism (v. 4) nonlinear regression, sigmoidal dose response curve fitting.
# human EP4 [3] = biological target: T1, human EP4; test: In vitro antagonist activity in human whole blood (reversal of PGE2 inhibition of LPS-induced TNFα production); assay type: cell-based; conditions: LPS 10 μg/mL with 10 nM PGE2, geometric mean±SD, n=11, read-out: IC50 in human blood TNFα induction assay
# Text: The inhibitory effects of PGE2 on LPS-induced TNFα production from macrophages/monocytes are believed to be mediated by EP4 receptors (See Murase, A., et al., Life Sciences, 82:226-232 (2008)). The ability of the compound of Example 1 to reverse the inhibitory effect of PGE2 on LPS-induced TNFα production in human whole blood is an indicia of functional activity.
# Blood is collected from normal volunteer donors into sodium heparin vacutainer tubes. Donors have not taken NSAIDs or celecoxib within 48 hours or glucocorticoids within two weeks prior to the donation. All tubes/donor are pooled into 50 mL Falcon conical centrifuge tubes and 98 μL/well is distributed into 96-well tissue culture plates (Falcon 3072). […] TNFα levels in 2 μL plasma are quantified by a commercially available enzyme immunoassay (R&D Systems DY210), using Immulon 4 HBX plates (Thermo 3855) and 3,3′,5,5′ tetramethylbiphenyl-4,4′-diamine substrate (KPL 50-76-03). The plates are read at A450-A650 on a plate reader (Molecular Devices Versamax) using SOFTmaxPRO (v. 4.3.1) software. IC50s are calculated using Graphpad Prism (v. 4) nonlinear regression, with sigmoidal dose response curve fitting. Results are expressed as the geometric mean±standard deviation; n=number of independent determinations.
# Target sequence in this assay (P35408 whole entry, looked up): as above
# Sequence of human EP1 (P34995 whole entry, canonical isoform): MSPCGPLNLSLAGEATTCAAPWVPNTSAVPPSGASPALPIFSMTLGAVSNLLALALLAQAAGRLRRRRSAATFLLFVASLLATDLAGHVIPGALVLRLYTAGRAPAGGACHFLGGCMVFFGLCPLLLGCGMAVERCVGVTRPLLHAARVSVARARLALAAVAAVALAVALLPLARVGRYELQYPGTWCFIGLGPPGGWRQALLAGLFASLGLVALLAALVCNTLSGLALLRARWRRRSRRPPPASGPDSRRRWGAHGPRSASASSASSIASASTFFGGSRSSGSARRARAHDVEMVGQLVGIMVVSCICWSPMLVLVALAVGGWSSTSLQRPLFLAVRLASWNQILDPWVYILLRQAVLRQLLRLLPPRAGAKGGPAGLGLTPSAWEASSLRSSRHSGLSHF
# Sequence of human EP3 (isoform VI) (P43115 other isoform, or with tags, fused parts or gaps): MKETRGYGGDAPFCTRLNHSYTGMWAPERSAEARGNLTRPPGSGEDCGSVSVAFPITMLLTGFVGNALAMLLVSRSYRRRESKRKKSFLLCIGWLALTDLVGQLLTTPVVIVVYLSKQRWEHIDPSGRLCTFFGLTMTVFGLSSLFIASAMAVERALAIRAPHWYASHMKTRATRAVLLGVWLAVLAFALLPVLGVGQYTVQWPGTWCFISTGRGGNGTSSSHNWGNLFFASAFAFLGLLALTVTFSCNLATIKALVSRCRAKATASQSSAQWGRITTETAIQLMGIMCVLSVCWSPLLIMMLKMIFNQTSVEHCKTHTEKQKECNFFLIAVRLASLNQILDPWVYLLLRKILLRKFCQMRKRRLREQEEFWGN
# Sequence of human EP2 (P43116 whole entry): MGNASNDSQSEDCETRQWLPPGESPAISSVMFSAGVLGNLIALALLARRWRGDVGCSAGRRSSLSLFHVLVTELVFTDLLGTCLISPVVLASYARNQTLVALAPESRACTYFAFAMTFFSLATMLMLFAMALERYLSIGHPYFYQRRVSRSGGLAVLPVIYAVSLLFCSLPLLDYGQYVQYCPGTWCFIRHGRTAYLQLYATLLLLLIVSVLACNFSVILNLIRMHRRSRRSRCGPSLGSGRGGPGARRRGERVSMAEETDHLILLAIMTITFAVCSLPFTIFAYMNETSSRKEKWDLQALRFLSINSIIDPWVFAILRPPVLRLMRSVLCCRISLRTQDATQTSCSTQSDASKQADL
# Sequence of rat EP4 (P43114 whole entry): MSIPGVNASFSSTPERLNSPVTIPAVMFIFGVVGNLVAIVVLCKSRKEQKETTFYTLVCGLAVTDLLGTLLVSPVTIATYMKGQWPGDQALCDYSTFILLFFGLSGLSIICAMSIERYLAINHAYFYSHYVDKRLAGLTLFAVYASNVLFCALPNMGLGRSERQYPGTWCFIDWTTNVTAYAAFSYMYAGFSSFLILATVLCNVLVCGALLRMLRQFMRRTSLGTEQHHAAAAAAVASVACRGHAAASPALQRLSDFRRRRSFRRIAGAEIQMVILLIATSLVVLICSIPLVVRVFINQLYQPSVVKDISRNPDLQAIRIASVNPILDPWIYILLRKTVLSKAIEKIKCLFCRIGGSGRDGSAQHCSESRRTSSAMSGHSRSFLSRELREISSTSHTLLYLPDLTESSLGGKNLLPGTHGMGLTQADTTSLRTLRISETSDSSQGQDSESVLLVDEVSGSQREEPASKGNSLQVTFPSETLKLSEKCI
smiles,measurement,setting,value
"CC(C)[C@@H](OCCOc1ccccc1)C(=O)N[C@@H](C)c1ccc(C(=O)O)cc1 [Example 1, 4-[(1S)-1-[[(2R)-3-methyl-2-(2-phenoxyethoxy)butanoyl]amino]ethyl]benzoic acid]",Ki,human EP1,> 17400 nM
same,Ki,human EP2,261 ± 108 nM
same,Ki,human EP3 (isoform VI),> 12700 nM
same,Ki,human EP4 [1],0.45 ± 0.26 nM
same,IC50,human EP4 [2],2.2 ± 1.7 nM
same,IC50,rat EP4,2 nM
same,IC50,human EP4 [3],20 ± 24 nM
